Entries after “also recorded” stand apart in the source; their conditions may differ. Read-outs that look alike come from different tables or passages of the source.
Experiments:
[1] = test system: primary chick cortical neurons; assay: Phosphoinositide hydrolysis assay (InsP3 production) in cultured primary cortical neurons; format: cell-based; conditions: Gallus gallus, Cortical neurone, 20 min, read-out: Ins-P-n
Protocol: The neurons were seeded in 24-well plastic tissue culture plates that had been coated with L-polylysine.
Receptor-stimulated and basal unstimulated hydrolysis of phosphoinositides was measured by the following procedure. […] The cells were then washed twice with 1 ml Dulbecco's phosphate-buffered saline (PBS) and 0.5 ml of PBS containing 4.5 g/L glucose was added. Sphingosine, psychosine, lysosulphatide, or lysosphingomyelin, prepared as the hydrochloride salt dissolved in water, were then added to produce the desired extracellular concentration in specific wells, […] The cells were then washed twice with 1 ml PBS, and pre-incubated for 15 minutes at 37°C with 0.5 ml PBS containing 10 mM LiCl and the compound to be tested was added. […] The tubes were vortexed thoroughly, then centrifuged at 500 x g for 5 minutes to separate the aqueous and chloroform phases. For each sample, a 1.5-ml aliquot of the upper (aqueous) phase was applied to a small column containing BioRad AG1X8 resin (formate form). Free [^3H]inositol and [^3H]glycerophosphoinositol were washed through the column with 5 ml of a solution containing 5 mM sodium borate and 60 mM sodium formate. The total phosphorylated [^3H] inositol fraction was eluted from the column for radiometric scintillation spectrometry analysis with 3 ml 1.0 M ammonium formate/0.1 M formic acid.
In addition, a 0.5 ml aliquot of the lower (chloroform) phase of each sample was analyzed radiometrically by scintillation spectrometry in order to determine the quantity of lipid-bound [^3H]myo-inositol. Estimation of phosphoinositide hydrolysis by phospholipase C is based upon the quantity of [^3H]inositol phosphates produced, and is expressed as the percentage of the latter relative to total free and componential [^3H]inositol (dpm ammonium formate + dpm chloroform fractions).

[2] = Behavioral analysis after ICV infusion (quisqualate excitotoxicity model); format: in vivo, rats; conditions: rat, in vivo, icv or intrathecal, rats
Protocol: (§1) The animals used in this experiment were male F344 rats (Charles River Breeding Laboratories). The animals were housed individually, exposed to a 12-hour light-dark cycle, and allowed free access to food and water. The animals weighed approximately 250 g at the beginning of each experiment and were weighed daily. In addition, the animals were habituated to handling before each experiment.
(§2) Before administering various compounds, the animals were anesthetized with sodium pentobarbital (50 mg/kg, i.p.) and positioned in a sterotaxic instrument. A 26 gauge cannula was inserted into the cerebral ventricle at the following co-ordinates: 1.0 mm posterior to bregma, 1.5 mm lateral to the midline, and 4.0 mm below the dorsal surface of the neocortex. Cannulas were capped and fixed in place with dental cement. One week after cannulation, 10 µl of each of the treatment drugs was infused, ICV (i.e. into the ventricals of the brain), via a micropump at a rate of 10 µl/min. For this procedure, the animals were lightly restrained and unanesthetized. Following administration of the compound, the infusion cannula remained in position for one minute, after which the permanent in situ cannula was capped.
(§3) The compounds administered were obtained from a commercial supplier (Sigma Chemical Co., St. Louis, MO) and dissolved in saline prior to injection. These compounds included quisqualate (injected at doses ranging from 100 nmole/10 µl to 1 µmole/10 µl), lysocerebroside, and lysophingomyelin (which were injected at doses of 25 nmoles/10 µl to 150 nmoles/10 µl).
(§4) Pilot studies identified several specific behavioral measures that could be used to indicate excessive activation of the metabotropic receptor (see Table 3). […] The experiments that follow were based on an analysis of these behaviors over a two hour period after administration of the compounds of the invention. Behavioral observation was carried out by two trained observers, who worked independently of one another and who were blind to the experimental groups. […] Frequency and duration means were computed by subtracting pre-infusion means from post-infusion means.
(§5) The experiment began one week after ICV cannulation. […] Following the baseline observation period, animals received the first of two ICV infusions (all infusions were of a 10 µl volume that was administered over a 1 minute period). For the first five groups listed above, this consisted of saline (10 µl/minute), for the following 3 groups the infusions were psychosine at 125 nmoles, lysosphingomyelin at 125 nmoles, or lysosphingomyelin at 150 nmoles, respectively. Thirty minutes later, all animals received the second infusion which, for the first five groups listed above, consisted of saline, quisqualate at 225 nmoles, psychosine at 125 nmoles, lysosphingomyelin at 125 nmoles, and lysosphingomyelin at 150 nmoles respectively. […] Following the second infusion animals were returned to their cages, and observed continuously over the subsequent 2 hours.

male F344 rats = assay: as above; format: in vivo
Protocol: as §1, §2, §3, §4, §5

hippocampal neurons [3] = assay: Histological analysis of brain (cresyl violet) seven days after ICV infusion; format: in vivo, rats
Protocol: as §1, §2, §3
Seven days after the compounds were administered, animals were sacrificed by transcardial perfusion with neutralized, buffered 10% formalin-saline. Their brains were removed, post-fixed overnight in 10% formalin-saline, and sectioned along the coronal plane (into 50 µm thick sections) on a freezing microtome. The sections were stained with cresyl violet to determine the extent of cellular destruction. […]
Given that high concentrations of metabotropic receptors are located in the hippocampus, and that the hippocampus is particularly vulnerable to the effects of a variety of insults including ischemia and hypoxia, this region was examined for evidence of neuronal degeneration due to glutamate excitoxicity.

hippocampal neurons [4] = assay: as above; format: in vivo; conditions: Quisqualate 500 µmoles ICV, rats

## N[C@@H](Cn1oc(=O)[nH]c1=O)C(=O)O [Quisqualate, quisqualate]
[1]
  fold induction at 100 µM: 3 ± 0.05
[2]; 225 nmol, Quisqualate 225 nmoles ICV, read-out: death, cases
  mortality: 60%
[2]; 250 nmol, Quisqualate 250 nmoles ICV, read-out: death, cases
  mortality: 75%
[2]; Quisqualate 1 µmoles ICV, read-out: dead, cases
  mortality: 100%
Male F344 rats; ICV, rats, pilot testing
  effective dose (to produce behavioral and histological changes): 225 nmoles
Male F344 rats; Quisqualate 100 nmoles ICV, rats, reflex score 0 normal, 3 severely abnormal
  BEHAVIOR: -teeth chatter; also recorded: -mild scratching; also recorded: -hind leg weakness 60 minutes; also recorded: -normal placement and clasp reflex (0)
Male F344 rats; Quisqualate 150 nmoles ICV, rats, reflex score 0 normal, 3 severely abnormal
  BEHAVIOR: -teeth chatter; also recorded: -localized twitches; also recorded: -mild hyperactivity walking in circles; also recorded: -hind leg weakness for 60 minutes; also recorded: -normal placement and clasp reflex (0)
Male F344 rats; Quisqualate 150 nmoles ICV, rats, reflex score 0 normal, 3 severely abnormal, listed as quisqualate
  BEHAVIOR: an increase in activity and teeth chattering
Male F344 rats; Quisqualate 200 nmoles ICV, rats, reflex score 0 normal, 3 severely abnormal
  BEHAVIOR: -teeth chatter; also recorded: -occasional mild convulsions; also recorded: -hyperactivity - circle walking; also recorded: -episodic akinesia/tonic immobility; also recorded: -hind leg weakness; also recorded: -normal limb clasp and placement reflex (0)
Male F344 rats; Quisqualate 225 nmoles ICV, rats
  death, cases: -death in 60% of cases
Male F344 rats; Quisqualate 225 nmoles ICV, rats, reflex score 0 normal, 3 severely abnormal
  BEHAVIOR: moderate convulsions
Male F344 rats; Quisqualate 250 nmoles ICV, rats, reflex score 0 normal, 3 severely abnormal
  BEHAVIOR: -localized spasms jerking/twitching; also recorded: -full body convulsions-severe/repeated; also recorded: -foaming at mouth; also recorded: -respiratory distress; also recorded: -abnormal placement and clasp reflex (3); also recorded: -vocalization; also recorded: -teeth chattering; also recorded: -scratching
Male F344 rats; Quisqualate 250 nmoles ICV, rats, reflex score 0 normal, 3 severely abnormal, listed as quisqualate
  BEHAVIOR: severe convulsions and death
Male F344 rats; Quisqualate 1 µmoles ICV, rats
  BEHAVIOR: -severe repeated full body convulsions; also recorded: -severe scratching; also recorded: -severe teeth chattering; also recorded: -foaming at mouth
  time to death: 5 to 15 min
Male F344 rats; Quisqualate 500 µmoles ICV, rats
  BEHAVIOR: vocalization
Male F344 rats; quisqualate alone 225 nmoles vs lysosphingolipids alone and vs quisqualate 225 nmoles + lysophingomyelin 150 nmoles, Fig. 9
  duration of teeth chattering, akinesia and mobilization: significantly (p< .01) more time engaged in these behaviors
Male F344 rats; quisqualate alone at 225 nmoles ICV compared to all other groups, 2 hours observation, Fig. 8
  number of convulsions/spasms: significantly (p.<01) more convulsions/spasms
Hippocampal neurons [3]; Quisqualate 100 nmoles ICV, rats
  HISTOLOGICAL CHANGES: none observed
Hippocampal neurons [3]; Quisqualate 150 nmoles ICV, rats
  HISTOLOGICAL CHANGES: none observed
Hippocampal neurons [3]; Quisqualate 225 nmoles ICV, rats, seven days after
  HISTOLOGICAL CHANGES: loss of CA1 pyramidal neurons in the hippocampus
Hippocampal neurons [3]; Quisqualate 225 nmoles ICV, rats, seven days after, listed as quisqualate
  HISTOLOGICAL CHANGES: severe loss of neurons in the hippocampus; also recorded: a considerable loss of CA1 pyramidal neurons in the hippocampus
Hippocampal neurons [3]; Quisqualate 250 nmoles ICV, 'as above' = loss of neurons in the piriform and entorhinal cortex, CA1 and dentate gyrus regions of the hippocampus, listed as quisqualate
  HISTOLOGICAL CHANGES: severe loss of neurons in the hippocampus
Hippocampal neurons [4]
  HISTOLOGICAL CHANGES: loss of neurons in the piriform and entorhinal cortex. CA1 and dentate gyrus regions of the hippocampus

From patent publication EP1488698A1, “Compositions for descreasing intracellular inositol trisphosphate concentration and uses thereof” (priority 1995, dated 1997)
